Experimental data from patent US3966737A, “Fluoro-substituted dibenso[b,f] thiepins” (priority 1973, dated 1976).
“Also recorded” adds a separate entry of the source.

Columns and labels:
Type in all cases: in vivo
[1] = "Pole Climbing" Test, conditioned reaction and unconditioned reaction of rats; conditions: for ED50: Rattus norvegicus, po, read-out: ED50 (Blocking of the conditioned reaction); for Quotient-ED10 (Blocking of the unconditioned reaction)/ED50 (Blocking of the conditioned reaction): higher quotient = stronger selectivity of the neuroleptic effect
Excerpt: The test provides information regarding the behavioral reactions of rats. Rats are trained to avoid an electrical stimulus (unconditioned stimulation) which is effected through a base grid a few seconds after an acoustical signal (conditioned stimulation) by climbing up a vertical rod in the test chamber. The blocking of the conditioned reaction is expressed by the parameter ED50 (mg/kg. p.o.), the blocking of the unconditioned reaction is expressed by the parameter ED10 (mg/kg. p.o.).

[2] = tested on: turnover of dopamine in the basal ganglions; test: Determination of Homovanillinic Acid (HVA) in rat brain; conditions: rats; for Increase in HVA, %: two hours, titer in untreated rats set at 100%
Excerpt: […] Thereafter, the homovanillinic acid is extracted from the supernatant portion of a homogenized mixture of the brains of the treated rats into butyl acetate and later into an aqueous solution and is oxidized with potassium ferric cyanide to a fluorescent dimer. […] The homovanillinic acid titer in untreated rats is arbitrarily set at 100%.

[3] = Rotating Rod Test (coordinated motor performance of mice); conditions: for ED50: Mus musculus, po, read-out: ED50 (dose which reduces the holding on period of the mice by 50%); for activity in the Rotating Rod Test (in words): compared with chlorpromazine
Experimental: In the Rotating Rod Test, the ability of mice to achieve a coordinated motor performance is investigated. After peroral administration of the test substance, the mice are placed upon a horizontal slowly rotating rod and the time they remain […] the rod is recorded.

[4] = cataleptic effect in rats (intraperitoneal); conditions: for TD50 at 6 h: recorded every 30 minutes over 6 hours, read-out: ED50 (dose at which 50% of the animals are cataleptic)
Experimental: The following compounds were tested:
The test animals are considered to be cataleptic when the homolateral extremities remain in the crossed position for at least 10 seconds. The number of cataleptic animals is recorded every 30 minutes over a 6-hour period.

[5] = rat, in vivo, ip, rats, intraperitoneal
[6] = rats, intraperitoneal, as compared to chlorpromazine

SMILES	ED50 [1] [mg/kg]	Quotient-ED10 (Blocking of the unconditioned reaction)/ED50 (Blocking of the conditioned reaction) ([1]; rats, p.o.)	Increase in HVA, % ([2]; 20 mg/kg p.o.) [%]	ED50 [3] [mg/kg]	cataleptic effect (in words) ([4]; rat, in vivo, ip)	ED50 ([1]; rats, p.o.) [mg/kg]	quality (selectivity) of the neuroleptic activity relative to chlorpromazine (in words) ([1]; rats, p.o.)	strength of the neuroleptic activity relative to chlorpromazine (in words) ([1]; rats, p.o.)	activity in the HVA test relative to chlorpromazine (in words) [2]	Increase in HVA, % ([2]; 50 mg/kg p.o.) [%]	ED50 ([3]; mice, peroral) [mg/kg]	activity in the Rotating Rod Test (in words) ([3]; mice, peroral, maleate)	TD50 at 6 h [4, 5] [mg/kg]	cataleptic effect (in words) [4, 6]	activity in the Rotating Rod Test (in words) ([3]; mice, peroral)
CN(C)CCCN1c2ccccc2Sc2ccc(Cl)cc21 [Chlorpromazine, chlorpromazine, reference compound]	11.6	3.5	321	5	does demonstrate cataleptic effects										
CN1CCN(C2Cc3cc(Cl)ccc3Sc3cc(F)ccc32)CC1.O=C(O)/C=C\C(=O)O (stereo not drawn) [Product A, 1-(2-chloro-7-fluoro-10,11-dihydro-dibenzo[b,f]thiepin-10-yl)-4-methylpiperazine maleate]		3.3				30	about equal to that of chlorpromazine	about half that of chlorpromazine	nearly as potent as that of chlorpromazine	280	5.8	strong activity; also recorded: activity approximates that of chlorpromazine	70	only very weak cataleptic effect	
CN1CCN(C2Cc3ccc(Cl)cc3Sc3ccc(F)cc32)CC1.O=C(O)/C=C\C(=O)O (stereo not drawn) [Product B, 1-(3-chloro-8-fluoro-10,11-dihydro-dibenzo[b,f]thiepin-10-yl)-4-methylpiperazine maleate]		11.0				27	considerably superior to that of chlorpromazine	about half of that of chlorpromazine			3.1		100	only very weak cataleptic effect	superior to chlorpromazine
O=C(O)/C=C\C(=O)O.OCCCN1CCN(C2Cc3cc(Cl)ccc3Sc3ccc(F)cc32)CC1 (stereo not drawn) [Product C, 4-(2-chloro-8-fluoro-10,11-dihydro-dibenzo[b,f]thiepin-10-yl)-1-piperazinepropanol maleate]									nearly as potent as that of chlorpromazine	273			64	only very weak cataleptic effect	
